According to patent publication US6274715A, “Tricyclic erythromycin derivatives” (priority 1997, dated 2001):
Converted amounts (≈) assume the structure as drawn.

Experiments:
[1] = system: STAPHYLOCOCCUS EPIDERMIDIS 3519; assay type: cell-based; conditions: S. epidermidis 3519; BHI agar; unit assumed
[2] = system: STAPHYLOCOCCUS AUREUS A5177; test: In vitro antibacterial activity, MIC, BHI agar dilution; assay type: cell-based; conditions: S. aureus A5177, unit assumed
ESCHERICHIA COLI DC-2 = test: as above; assay type: cell-based; conditions: E. coli DC-2, unit assumed
[3] = system: STREPTOCOCCUS PYOGENES PIU 2548; test: as above; assay type: cell-based; conditions: S. pyogenes PIU 2548, unit assumed
[4] = system: STAPHYLOCOCCUS AUREUS A-5278; test: as above; assay type: cell-based; conditions: S. aureus A-5278, unit assumed
H. Influenza Dill AMP R = test: In vitro antibacterial activity against H. Influenza Dill AMP R, MIC; assay type: cell-based; conditions: separate assay, unit assumed
Outline: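 Agar dilution in Brain Heart Infusion agar, twelve successive compound dilutions, inoculated by Steers replicator with 1:100 (1:10 for slow growers) culture dilutions. Incubation 35-37° C. for 20 to 24 hours; MIC is lowest concentration giving no growth, slight haze or sparse colonies versus drug-free control.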

[5] = system: STREPTOCOCCUS PYOGENES 930; test: In vitro antibacterial activity, MIC, BHI agar dilution; assay type: cell-based; conditions: S. pyogenes 930, unit assumed
[6] = system: KLEBSIELLA PNEUMONIAE ATCC 8045; test: as above; assay type: cell-based; conditions: K. pneumoniae ATCC 8045, unit assumed
CANDIDA ALBICANS CCH 442 = test: as above; assay type: cell-based; conditions: C. albicans CCH 442, unit assumed
[7] = system: PROVIDENCIA STUARTII CMX 640; assay type: cell-based; conditions: P. stuartii CMX 640; BHI agar; unit assumed
[8] = system: PSEUDOMONAS AERUGINOSA K799/61; test: In vitro antibacterial activity, MIC, BHI agar dilution; assay type: cell-based; conditions: P. aeruginosa K799/61, unit assumed
ESCHERICHIA COLI H560 = test: as above; assay type: cell-based; conditions: E. coli H560, unit assumed
[9] = system: ENTEROBACTER AEROGENES ATCC 13048; test: as above; assay type: cell-based; conditions: E. aerogenes ATCC 13048, unit assumed
[10] = system: PSEUDOMONAS AERUGINOSA BMH10; test: as above; assay type: cell-based; conditions: P. aeruginosa BMH10, unit assumed
[11] = system: STAPHYLOCOCCUS AUREUS ATCC 6538P; test: as above; assay type: cell-based; conditions: S. aureus ATCC 6538P, 35-37° C., 20 to 24 hours, unit assumed
[12] = system: STAPHYLOCOCCUS AUREUS CMX 553; test: as above; assay type: cell-based; conditions: S. aureus CMX 553, unit assumed
[13] = system: MYCOBACTERIUM SMEGMATIS ATCC 114; test: as above; assay type: cell-based; conditions: M. smegmatis ATCC 114, unit assumed
Grarn-negative bacteria = conditions: background statement; cited from earlier work
[14] = system: PSEUDOMONAS AERUGINOSA DPHD-5263; test: In vitro antibacterial activity, MIC, BHI agar dilution; assay type: cell-based; conditions: P. aeruginosa DPHD-5263, unit assumed
[15] = system: STREPTOCOCCUS BOVIS A-5169; test: as above; assay type: cell-based; conditions: S. bovis A-5169, unit assumed
STR[…] 508 = test: as above; assay type: cell-based; conditions: S. agalactiae CMX 508, unit assumed
Outline: (§1)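 MIC was read visually as the lowest drug level with no growth, a slight haze or sparsely isolated colonies relative to a compound-free growth control. Organisms were spotted at 1:100 dilution (1:10 for slow-growing strains) onto Brain Heart Infusion agar containing serial compound dilutions and incubated 20 to 24 hours at 35-37° C.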

EN[…] ATCC 8043 = test: as above; assay type: cell-based; conditions: E. faecium ATCC 8043, unit assumed
Outline: as §1

M[…] ATCC 4698 = test: as above; assay type: cell-based; conditions: M. luteus ATCC 4698, unit assumed
Outline: as §1

M[…] ATCC 9341 = test: as above; assay type: cell-based; conditions: M. luteus ATCC 9341, unit assumed
Outline: as §1

[16] = system: STAPHYLOCOCCUS AUREUS 1775; test: as above; assay type: cell-based; conditions: S. aureus 1775, unit assumed
ESCHERICHIA COLI KNK 437 = assay type: cell-based; conditions: E. coli KNK 437; BHI agar; unit assumed
ESCHERICHIA COLI SS = test: In vitro antibacterial activity, MIC, BHI agar dilution; assay type: cell-based; conditions: E. coli SS, unit assumed
PSEUDOMONAS CEPACIA 296I = test: as above; assay type: cell-based; conditions: P. cepacia 296I, unit assumed
ESCHERICHIA COLI JUHL = assay type: cell-based; conditions: E. coli JUHL; BHI agar; unit assumed
[17] = system: PSEUDOMONAS AERUGINOSA DPHD-2862; test: In vitro antibacterial activity, MIC, BHI agar dilution; assay type: cell-based; conditions: P. aeruginosa DPHD-2862, unit assumed
[18] = system: STREPTOCOCCUS PYOGENES EES61; test: as above; assay type: cell-based; conditions: S. pyogenes EES61, unit assumed
[19] = system: STAPHYLOCOCCUS AUREUS CMX 642A; test: as above; assay type: cell-based; conditions: S. aureus CMX 642A, unit assumed
[20] = system: STAPHYLOCOCCUS AUREUS NCTC10649M; test: as above; assay type: cell-based; conditions: S. aureus NCTC10649M, unit assumed
[21] = system: PSEUDOMONAS AERUGINOSA 5007; test: as above; assay type: cell-based; conditions: P. aeruginosa 5007, unit assumed
[22] = system: PSEUDOMONAS AERUGINOSA K799/WT; test: as above; assay type: cell-based; conditions: P. aeruginosa K799/WT, unit assumed
[23] = system: ACINETOBACTER CALCOACETICUS CMX 669; test: as above; assay type: cell-based; conditions: A. calcoaceticus CMX 669, unit assumed

CC[C@H]1OC(=O)[C@H](C)[C@@H](O[C@H]2C[C@@](C)(OC)[C@@H](O)[C@H](C)O2)[C@H](C)[C@@H](O[C@@H]2O[C@H](C)C[C@H](N(C)C)[C@H]2O)[C@](C)(O)C[C@@H](C)C(=O)[C@H](C)[C@@H](O)[C@]1(C)O [Ery A, Erythromycin A, reference compound]
MIC [1]: 0.39 µg/mL (≈ 0.531 µM) | MIC [2]: 6.2 µg/mL (≈ 8.45 µM) | MIC (ESCHERICHIA COLI DC-2): > 100 µg/mL | MIC [3]: 6.2 µg/mL (≈ 8.45 µM) | MIC [4]: > 100 µg/mL | MIC (H. Influenza Dill AMP R): 4 µg/mL (≈ 5.45 µM) | MIC [5]: > 100 µg/mL | MIC [6]: 100 µg/mL (≈ 136 µM) | MIC (CANDIDA ALBICANS CCH 442): > 100 µg/mL | MIC [7]: > 100 µg/mL | MIC [8]: 0.78 µg/mL (≈ 1.06 µM) | MIC (ESCHERICHIA COLI H560): 25 µg/mL (≈ 34.1 µM) | MIC [9]: 100 µg/mL (≈ 136 µM) | MIC [10]: > 100 µg/mL | MIC [11]: 0.2 µg/mL (≈ 0.273 µM) | MIC [12]: 0.2 µg/mL (≈ 0.273 µM) | MIC [13]: 0.02 µg/mL (≈ 0.0273 µM) | activity against Gram-negative bacteria (Grarn-negative bacteria): only weak activity | MIC [14]: > 100 µg/mL | MIC [15]: 0.05 µg/mL (≈ 0.0681 µM) | MIC (STR[…] 508): 0.05 µg/mL (≈ 0.0681 µM) | MIC (EN[…] ATCC 8043): 0.05 µg/mL (≈ 0.0681 µM) | MIC (M[…] ATCC 4698): 0.2 µg/mL (≈ 0.273 µM) | MIC (M[…] ATCC 9341): 0.02 µg/mL (≈ 0.0273 µM) | MIC [16]: > 100 µg/mL | MIC (ESCHERICHIA COLI KNK 437): 50 µg/mL (≈ 68.1 µM) | MIC (ESCHERICHIA COLI SS): 0.2 µg/mL (≈ 0.273 µM) | MIC (PSEUDOMONAS CEPACIA 296I): > 100 µg/mL | MIC (ESCHERICHIA COLI JUHL): 100 µg/mL (≈ 136 µM) | MIC [17]: > 100 µg/mL | MIC [18]: 0.05 µg/mL (≈ 0.0681 µM) | MIC [19]: 0.39 µg/mL (≈ 0.531 µM) | MIC [20]: 0.2 µg/mL (≈ 0.273 µM) | MIC [21]: > 100 µg/mL | MIC [22]: 50 µg/mL (≈ 68.1 µM)

CC[C@H]1OC(=O)[C@H](C)C(=O)[C@H](C)[C@@H](O[C@@H]2O[C@H](C)C[C@H](N(C)C)[C@H]2O)[C@](C)(OC)C[C@@H](C)C2=NC3CN(S(=O)(=O)Cc4ccccc4[N+](=O)[O-])CC3N3C(=O)O[C@@]1(C)[C@H]3[C@H]2C (stereo partly drawn) [Example 123]
MIC [1]: 3.1 µg/mL (≈ 3.53 µM) | MIC [2]: 1.56 µg/mL (≈ 1.78 µM) | MIC (ESCHERICHIA COLI DC-2): > 100 µg/mL | MIC [3]: 3.1 µg/mL (≈ 3.53 µM) | MIC [4]: > 100 µg/mL | MIC (H. Influenza Dill AMP R): 128 µg/mL (≈ 146 µM) | MIC [5]: > 100 µg/mL | MIC [6]: > 100 µg/mL | MIC (CANDIDA ALBICANS CCH 442): > 100 µg/mL | MIC [7]: > 100 µg/mL | MIC [8]: 25 µg/mL (≈ 28.5 µM) | MIC (ESCHERICHIA COLI H560): > 100 µg/mL | MIC [9]: > 100 µg/mL | MIC [10]: > 100 µg/mL | MIC [11]: 1.56 µg/mL (≈ 1.78 µM) | MIC [12]: 3.1 µg/mL (≈ 3.53 µM) | MIC [13]: 12.5 µg/mL (≈ 14.2 µM) | MIC [14]: > 100 µg/mL | MIC [15]: 0.1 µg/mL (≈ 0.114 µM) | MIC (STR[…] 508): 0.1 µg/mL (≈ 0.114 µM) | MIC (EN[…] ATCC 8043): 0.39 µg/mL (≈ 0.444 µM) | MIC (M[…] ATCC 4698): 1.56 µg/mL (≈ 1.78 µM) | MIC (M[…] ATCC 9341): 0.39 µg/mL (≈ 0.444 µM) | MIC [16]: > 100 µg/mL | MIC [23]: > 100 µg/mL | MIC (ESCHERICHIA COLI KNK 437): > 100 µg/mL | MIC (ESCHERICHIA COLI SS): 6.2 µg/mL (≈ 7.06 µM) | MIC (PSEUDOMONAS CEPACIA 296I): > 100 µg/mL | MIC (ESCHERICHIA COLI JUHL): > 100 µg/mL | MIC [17]: > 100 µg/mL | MIC [18]: 0.1 µg/mL (≈ 0.114 µM) | MIC [19]: 3.1 µg/mL (≈ 3.53 µM) | MIC [20]: 3.1 µg/mL (≈ 3.53 µM) | MIC [21]: > 100 µg/mL | MIC [22]: > 100 µg/mL

CCC1OC(=O)C(C)C(=O)C(C)C(OC2OC(C)CC(N(C)C)C2O)C(C)(OC)CC(C)C2=NCC(CSc3ccccc3)(CN(C)C)N3C(=O)OC1(C)C3C2C (stereo not drawn) [Example 135]
MIC [1]: 3.1 µg/mL (≈ 3.79 µM) | MIC [2]: 1.56 µg/mL (≈ 1.91 µM) | MIC (ESCHERICHIA COLI DC-2): > 100 µg/mL | MIC [3]: 1.56 µg/mL (≈ 1.91 µM) | MIC [4]: > 100 µg/mL | MIC (H. Influenza Dill AMP R): 64 µg/mL (≈ 78.3 µM) | MIC [5]: > 100 µg/mL | MIC [6]: > 100 µg/mL | MIC (CANDIDA ALBICANS CCH 442): > 100 µg/mL | MIC [7]: > 100 µg/mL | MIC [8]: 6.2 µg/mL (≈ 7.59 µM) | MIC (ESCHERICHIA COLI H560): > 100 µg/mL | MIC [9]: > 100 µg/mL | MIC [10]: > 100 µg/mL | MIC [11]: 1.56 µg/mL (≈ 1.91 µM) | MIC [12]: 3.1 µg/mL (≈ 3.79 µM) | MIC [13]: 1.56 µg/mL (≈ 1.91 µM) | MIC [14]: > 100 µg/mL | MIC [15]: 0.1 µg/mL (≈ 0.122 µM) | MIC (STR[…] 508): 0.2 µg/mL (≈ 0.245 µM) | MIC (EN[…] ATCC 8043): 0.39 µg/mL (≈ 0.477 µM) | MIC (M[…] ATCC 4698): 1.56 µg/mL (≈ 1.91 µM) | MIC (M[…] ATCC 9341): 0.2 µg/mL (≈ 0.245 µM) | MIC [16]: > 100 µg/mL | MIC [23]: > 100 µg/mL | MIC (ESCHERICHIA COLI KNK 437): > 100 µg/mL | MIC (ESCHERICHIA COLI SS): 1.56 µg/mL (≈ 1.91 µM) | MIC (PSEUDOMONAS CEPACIA 296I): > 100 µg/mL | MIC (ESCHERICHIA COLI JUHL): > 100 µg/mL | MIC [17]: > 100 µg/mL | MIC [18]: 0.2 µg/mL (≈ 0.245 µM) | MIC [19]: 3.1 µg/mL (≈ 3.79 µM) | MIC [20]: 3.1 µg/mL (≈ 3.79 µM) | MIC [21]: > 100 µg/mL | MIC [22]: > 100 µg/mL
